Assays:
[1] = fatty acid released from the triglyceride substrate; cited from earlier work
lipase = assay: Glyceryl trioctanoate digestion in the model gut system (MGS), glycerol release; format: biochemical, porcine; conditions: 2 mmol glyceryl trioctanoate; Orlistat at 2.5, 5 and 10 mg vs control digestion; FIG. 6
Protocol: Fresh porcine bile was extracted from fresh procine gall bladders (collected on ice from abattoir). Approximately 50 gall bladders were collected per batch. The collected bile was pooled, mixed and frozen down in 25 ml aliquots for storage, as 25 ml is required for each replicate.
Glyceryl trioctanoate was used as the tryglyceride substrate for all assays of fat digestion reported herein. In these experiments, 2 mmol (0.94136 g) of glyceryl trioctanoate was added to the synthetic saliva preparations at T[−10] wherein T[−10] means 10 minutes prior to addition of the synthetic saliva to the test system.
At T[−10], salivary preparations containing substrate/sample/controls were prepared as indicated hereinbefore and incubated for 10 minutes on rollers. […]
In all the experiments, data samples of 0.5 ml were taken at T0, T5, T10, T15, T30, T45, T60, T60^B, T65, T70, T75, T90, T105, T120, T150 and T180, wherein (T60^B) represents a second sample at T60 which was taken after the addition of fresh porcine bile. […] The test samples were stored at 4° C. overnight to allow for precipitation and then centrifuged at 10,000 r.p.m. for 10 minutes, after which the supernatant was analysed. […]
Triglyceride digestion can be measured using ZenBio Glycerol Reagent A to quantify the release of glycerol. A 5 μl of sample was incubated with 80 μl Reagent A for 30 minutes and colour development was measured at 550 nm. […]

SMILES	pKa [1]	total glycerol recovered from the model gut system after TCA precipitation (lipase)
CCCC(=O)O [Butyric Acid]	4.84	–
CCCCCCCC/C=C\CCCCCCCC(=O)O [Oleic Acid]	9.95	–
CCCCCCCCCCC[C@@H](C[C@@H]1OC(=O)[C@H]1CCCCCC)OC(=O)[C@H](CC(C)C)NC=O [Orlistat]	–	varies in accordance with the level of Orlistat
CCCCCCCCCCCCCCCC(=O)O [Palmitic Acid]	9.7	–
CCCCCCCCCCCCCCCCCC(=O)O [Stearic Acid]	10.15	–

— US10191062B2, “Model gut system” (priority 2013, dated 2019)
